Measured values from paper PMC10196468, “Synthesis, in vitro biological assessment, and molecular docking study of benzimidazole-based thiadiazole derivatives as dual inhibitors of α-amylase and α-glucosidase” (Frontiers in Chemistry, 2023).

Legend:
α-glucosidase = test: in vitro α-glucosidase inhibitory assay (p-nitrophenyl-D-glucopyranoside, 405 nm); format: biochemical; details: triplicates; standard acarbose; read-out: α-Glucosidase IC50 (µM ±SEM)
Protocol: 10 µl of the α-glucosidase enzyme, 20 µl of test samples (10-50 µg/ml) and 50 µl, of 0.1M phosphate buffer (pH=6.8), were incubated at 37°C for 15 min in a 96-well plate. 20 µl of p-nitrophenyl—D-glucopyranoside solution was further added as a substrate and again incubated for 20 min at 37 °C. Sodium carbonate (50 µl of 0.1M) was added to terminate the reaction. P-nitrophenol was liberated, during the reaction which was measured at 405nm using an ELISA microplate reader. […] All the experiments were carried out in triplicates. The percentage inhibition was calculated by the formula.
% Inhibition = [(Ac – As) /Ac] × 100 Ac-absorbance for control, As-absorbance for standard.

α-amylase = biological target: T1, α-amylase (Sus scrofa, UniProt P00690); test: in vitro α-amylase inhibitory assay (starch/DNS, absorbance 540 nm); format: biochemical; details: triplicates; standard acarbose; read-out: α-Amylase IC50 (µM ±SEM)
T1 sequence (P00690 16-511): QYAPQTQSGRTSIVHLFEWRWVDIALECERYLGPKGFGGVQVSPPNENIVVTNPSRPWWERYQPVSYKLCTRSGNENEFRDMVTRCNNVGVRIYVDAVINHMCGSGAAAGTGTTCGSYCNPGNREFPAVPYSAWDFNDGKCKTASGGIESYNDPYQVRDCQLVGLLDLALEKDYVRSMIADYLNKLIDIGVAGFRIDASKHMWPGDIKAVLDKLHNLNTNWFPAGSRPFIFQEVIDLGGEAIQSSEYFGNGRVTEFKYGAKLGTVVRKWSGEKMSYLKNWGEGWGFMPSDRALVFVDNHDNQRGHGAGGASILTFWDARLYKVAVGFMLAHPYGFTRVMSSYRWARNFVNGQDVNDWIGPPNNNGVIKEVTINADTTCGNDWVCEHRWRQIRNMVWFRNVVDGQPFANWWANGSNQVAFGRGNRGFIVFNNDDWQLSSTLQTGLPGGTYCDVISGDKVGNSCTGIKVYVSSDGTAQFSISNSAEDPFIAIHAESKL
Protocol: 20µL of α -amylase solution (0.5 mg/ml) was added to phosphate buffer (pH 6.9, 0.02 M, 200 µL). 250 μL of test samples (10-50 µg/mL) was added, to all the above solutions and kept for incubation for 10 min.1% starch solution (200µL) was further added and again kept for incubation for 10 min at a temperature of 25°C. Termination of the reaction was affected by the addition of 400 μL of 3, 5-dinitrosalicylic acid (DNS) reagent. Lastly, it was incubated in water (at 70°C, 5 min). The absorbance was recorded using an ELISA microplate reader at 540 nm. […] All the reactions were carried out in triplicates. The reaction mixture, devoid of the test sample, served as control. The following formula was employed to calculate percentage inhibition..
% Inhibition = [(Ac – As) /Ac] × 100 Ac-Control absorbance, As-Standard absorbance

Row | Molecule | IC50 (α-glucosidase) [µM] | IC50 (α-amylase) [µM]
1 | FC(F)(F)c1ccc(/C=N/c2nnc(-c3cccc4[nH]cnc34)s2)cc1 [Analog 1, (E)-N-(5-(1H-benzo[d]imidazol-4-yl)-1,3,4-thiadiazol-2-yl)-1-(4-(trifluoromethyl)phenyl)methanimine] | 2.8 ± 0.2 | 
2 | O=[N+]([O-])c1ccccc1/C=N/c1nnc(-c2cccc3[nH]cnc23)s1 [Analog 4, (E)-N-(5-(1H-benzo[d]imidazol-4-yl)-1,3,4-thiadiazol-2-yl)-1-(2 nitrophenyl)methanimine] | 7.4 ± 0.3 | 
3 | O=[N+]([O-])c1ccc(/C=N/c2nnc(-c3cccc4[nH]cnc34)s2)cc1 [Analog 5, (E)-N-(5-(1H-benzo[d]imidazol-4-yl)-1,3,4-thiadiazol-2-yl)-1-(4-nitrophenyl)methanimine] | 5.7 ± 0.2 | 
4 | Cc1ccc(/C=N/c2nnc(-c3cccc4[nH]cnc34)s2)cc1 [Analog 6, (E)-N-(5-(1H-benzo[d]imidazol-4-yl)-1,3,4-thiadiazol-2-yl)-1-(p-tolyl)methanimine] | 15.3 ± 0.1 | 
5 | Fc1ccc(/C=N/c2nnc(-c3cccc4[nH]cnc34)s2)cc1 [Analog 9, (E)-N-(5-(1H-benzo[d]imidazol-4-yl)-1,3,4-thiadiazol-2-yl)-1-(4-fluorophenyl)methanimine] | 3.9 ± 0.1 | 
6 | O=[N+]([O-])c1cc(Cl)ccc1/C=N/c1nnc(-c2cccc3[nH]cnc23)s1 [Analog 14, (E)-N-(5-(1H-benzo[d]imidazol-4-yl)-1,3,4-thiadiazol-2-yl)-1-(4-chloro-2-nitrophenyl)methanimine] | 9.3 ± 0.4 | 
7 | Brc1ccc(/C=N/c2nnc(-c3cccc4[nH]cnc34)s2)cc1 [Analog 16, (E)-N-(5-(1H-benzo[d]imidazol-4-yl)-1,3,4-thiadiazol-2-yl)-1-(4-bromophenyl)methanimine] | 26.1 ± 0.1 | 
8 | (E)-N-(5-(1H-benzo[d]imidazol-4-yl)-1,3,4-thiadiazol-2-yl)-1-(3-fluorophenyl)methanimine [Analog 11] | 4.7 ± 0.1 | 3.18 ± 0.1
9 | (E)-N-(5-(1H-benzo[d]imidazol-4-yl)-1,3,4-thiadiazol-2-yl)-1-(4-bromophenyl)methanimine [Analog 17] | 2.3 ± 0.6 | 2.16 ± 0.5

The remaining molecules from weak to strong by IC50 (α-glucosidase), led by results:

Row | IC50 (α-glucosidase) [µM] | Molecule | IC50 (α-amylase) [µM]
10 | 24.6 ± 0.2 | O=[N+]([O-])c1cc(Br)ccc1/C=N/c1nnc(-c2cccc3[nH]cnc23)s1 [Analog 3, (E)-N-(5-(1H-benzo[d]imidazol-4-yl)-1,3,4-thiadiazol-2-yl)-1-(4-bromo-2-nitrophenyl)methanimine] | 
11 | 21.6 ± 0.3 | Cc1cccc(/C=N/c2nnc(-c3cccc4[nH]cnc34)s2)c1 [Analog 8, (E)-N-(5-(1H-benzo[d]imidazol-4-yl)-1,3,4-thiadiazol-2-yl)-1-(m-tolyl)methanimine] | 
12 | 19.9 ± 0.1 | Cc1ccccc1/C=N/c1nnc(-c2cccc3[nH]cnc23)s1 [Analog 7, (E)-N-(5-(1H-benzo[d]imidazol-4-yl)-1,3,4-thiadiazol-2-yl)-1-(o-tolyl)methanimine] | 
13 | 17.2 ± 0.3 | COc1cccc(/C=N/c2nnc(-c3cccc4[nH]cnc34)s2)c1 [Analog 13, (E)-N-(5-(1H-benzo[d]imidazol-4-yl)-1,3,4-thiadiazol-2-yl)-1-(3-methoxyphenyl)methanimine] | 
14 | 15.4 ± 0.3 | COc1ccccc1/C=N/c1nnc(-c2cccc3[nH]cnc23)s1 [Analog 12, (E)-N-(5-(1H-benzo[d]imidazol-4-yl)-1,3,4-thiadiazol-2-yl)-1-(2-methoxyphenyl)methanimine] | 
15 | 14.5 ± 0.5 | COc1ccc(OC)c(/C=N/c2nnc(-c3cccc4[nH]cnc34)s2)c1 [Analog 10, (E)-N-(5-(1H-benzo[d]imidazol-4-yl)-1,3,4-thiadiazol-2-yl)-1-(2,5-dimethoxyphenyl)methanimine] | 
16 | 6.6 ± 0.1 | Clc1cccc(/C=N/c2nnc(-c3cccc4[nH]cnc34)s2)c1Cl [Analog 15, (E)-N-(5-(1H-benzo[d]imidazol-4-yl)-1,3,4-thiadiazol-2-yl)-1-(2,3-dichlorophenyl)methanimine] | 
17 | 2.1 ± 0.1 | Oc1cc(F)ccc1/C=N/c1nnc(-c2cccc3[nH]cnc23)s1 [Analog 2, (E)-2-(((5-(1H-benzo[d]imidazol-4-yl)-1,3,4-thiadiazol-2-yl)imino)methyl)-5-fluorophenol] | 
